In patent US8383631B2, “1,6-disubstituted-3-amino-4,5,6,7-tetrahydro-1H-pyrazolo[3,4-C]pyridin-7-one compounds and preparation thereof” (Korea Institute of Science and Technology, priority 2010, dated 2013):

Columns and labels:
Format in all cases: cell-based
[1] = test system: DU-145; test: SRB anticancer activity screening, DU-145; set-up: Inhibition % for cancer cells DU-145: dose or concentration left out as unconfirmed; conditions: DU-145 human prostate cancer, 48 hours
Protocol: (§1) A-549 (human lung carcinoma), HT-29 (human colon adenocarcinoma), DU145 (human prostate cancer), SK-MEL-2 (human malignant melanoma) and SK-OV-3 (human ovary malignant ascites) cells were used to evaluate the anticancer activity of the test compounds. All the cancer cells are all tumors cells derived from human and were acquired from the Korean Cell Line Bank. RP MI 1640 medium containing 10% fetal bovine serum was used as a culture medium. Cell culturing was performed in a constant-temperature, constant-humidity incubator (37° C., 5% CO2). Subculturing was performed once in 3 days, using 0.25% trypsin-1 mM EDTA.
(§2) The sulforhodamine B ([…]) assay, which was developed in 1989 by the National Cancer Institute to measure in vitro anticancer activity of drugs, was employed.
(§3) The subcultured cells were transferred using trypsin-EDTA solution to a 96-well microplate, at 5×10^3 cells per well, and then cultured in a CO2 incubator for 24 hours. After removing the medium and adding a solution of the test compound (100 μL) diluted 4-fold, the cells were cultured for 48 hours. […] After completely lysing the cells by adding 10 mM Trizma base (pH 10.3, 200 μL) to each well, absorbance was measured at 520 nm.
(§4) In order to evaluate the activity of the test compound for the cancer cells, GI50 was calculated according to Equation 1 or 2. […]
(§5) Then, IC50 value was calculated from the inhibitory concentration.

[2] = test system: A375P; test: SRB anticancer activity screening, A375P; set-up: Inhibition % for cancer cells A375P: dose or concentration left out as unconfirmed; conditions: A375P human melanoma cancer, 48 hours
[3] = test system: HCT-116; test: SRB anticancer activity screening, HCT-116; set-up: Inhibition % for cancer cells HCT-116: dose or concentration left out as unconfirmed; conditions: HCT-116 human colon cancer, 48 hours
[4] = test system: HT-29; test: SRB anticancer activity screening, HT-29; set-up: Inhibition % for cancer cells HT-29: dose or concentration left out as unconfirmed; conditions: HT-29 human colon adenocarcinoma, 48 hours
Protocol: as §1, §2, §3, §4, §5

| IC50 ([1]; read-out: IC50 (μM) for cancer cells DU-145) [µM] | IC50 ([2]; read-out: IC50 (μM) for cancer cells A375P) [µM] | IC50 ([3]; read-out: IC50 (μM) for cancer cells HCT-116) [µM] | IC50 ([4]; read-out: IC50 (μM) for cancer cells HT-29) [µM] | Structure (SMILES) | Inhibition % for cancer cells DU-145 [1] [%] | Inhibition % for cancer cells A375P [2] [%] | Inhibition % for cancer cells HCT-116 [3] [%] | Inhibition % for cancer cells HT-29 [4] [%] |
| --- | --- | --- | --- | --- | --- | --- | --- | --- |
|  |  |  |  | Cc1ccc(N2CCc3c(N)nn(C(=O)CCN4CCN(c5ccc(Cl)cc5)CC4)c3C2=O)cc1 [Compound 9, 3-amino-1-[{4-(4-chlorophenyl)piperazin-1-yl}propanoyl]-6-N-(p-tolyl)-4,5,6,7-tetrahydro-1-H-pyrazolo[3,4-c]pyridin-7-one] | 80.02 | 95.03 | 92.19 | 90.54 |
| 0.4 ± 0.02 | 0.34 ± 0.03 | 0.34 ± 0.01 | 0.15 ± 0.01 | Cc1ccc(N2CCN(CCC(=O)n3nc(N)c4c3C(=O)N(Cc3ccccc3)CC4)CC2)c(C)c1 [Compound 17, 3-amino-1-[{4-(2,4-dimethylphenyl)piperazin-1-yl}propanoyl]-6-N-benzyl-4,5,6,7-tetrahydro-1H-pyrazolo[3,4-c]pyridin-7-one] |  |  |  |  |
